Tested on: TXA2 agonist activity
Assay: Absence of Agonist Activity (pressor response in pithed rats)
Format: in vivo

| SMILES | pressor response (i.v. administration, doses up to 10 mg/kg) | mean arterial pressure (one minute after dosing at 0.1 mg/kg i.v.) |
| --- | --- | --- |
| O=C(O)CCCC/C=C(\c1ccc(-c2nc(C(=O)NCCCCC3CCCCC3)co2)cc1)c1cccnc1 [Example 2, (E)-7-[4-[4-[[(4-Cyclohexylbutyl)amino]carbonyl]-2-oxazolyl]phenyl]-7-(3-pyridyl)hept-6-enoic Acid] | absence of a pressor response | – |
| O=C(O)CCC/C=C\C[C@H]1[C@@H]2CC[C@@H](C2)[C@@H]1NS(=O)(=O)c1ccccc1 [Example S-145] | – | transient, but significant, increase |
